Measurements reported in patent publication US10889564B2, “Tetrahydroindazoles and medical uses thereof” (Genase Therapeutics B.V., priority 2015, dated 2021).

How the values were obtained:
[1] = tested on: ARN8 melanoma cells; assay: Sulforhodamine B assay of cancer cell growth and/or viability; type: cell-based; conditions: 72 hours; for viability at 2 µM: ARN8
Experimental: ARN8 melanoma cells are seeded at a density of 500 cells per well of a 96 well plate. Following 24 hours of incubation, cells are treated with increasing concentrations of the compound of Example 8 in the absence or presence of excess uridine (100 micromolar). Cells are incubated for 72 hours after which the growth medium is removed from the cells and replaced by […] of 1× sterile PBS and 50 μL of 40% trichloroacetic acid in dH2O. Samples are incubated at 4° C. for 1 h to fix the cells. The plate is then washed with 3 changes of water with all liquid allowed to drain from the plate. […] of 0.1% sulforhodamine B in 1% acetic acid in H2O is added to each well and incubated for 30 minutes. Excess dye is washed out with three changes of 1% acetic acid in H2O with all liquid allowed to drain from the plate. The remaining dye is solubilized in 100 microliters of 10 mM un-buffered basic Tris per well and absorbance read at 570 nm.

[2] = molecular target: T1, human dihydroorotate dehydrogenase (DHODH) (Homo sapiens (Human), UniProt Q02127); assay: DHODH enzyme assay, Assay A (DCIP absorbance); type: biochemical; conditions: 6 nM recombinant human DHODH
Experimental: (§1) Inhibition of human dihydroorotate dehydrogenase (DHODH) by example compounds as described herein was determined using one of two assays as described below.
DHODH enzyme assays were performed with 6 nM recombinant human DHODH (purified essentially as described by Walse et. al., Biochemistry, 47, 8929-8936 (2008)). The reaction mixture consisted of 1 mM DL-dihydroorotic acid (#D7003, Sigma-Aldrich), 100 μM 3,4-dimethoxy-5-methyl-p-benzoquinone (#D9150, Sigma-Aldrich), and 100 μM 2,6-dichlorophenolindophenol sodium salt (DCIP) (#D1878, Sigma-Aldrich) in enzyme buffer (50 mM Tris-HCl pH 8.0, 0.1% Triton X-100, 150 mM KCl). A stock solution of 20 mM DCIP was prepared in enzyme buffer and filtered through Whatman paper just before use. Loss in absorbance by chromogen DCIP was measured at 595 nm at RT every 3 min for an hour.

[3] = molecular target: T1, human dihydroorotate dehydrogenase (DHODH); assay: DHODH enzyme assay, Assay B (DCIP absorbance, 384 well); type: biochemical; conditions: 4 nM recombinant human DHODH
Experimental: as §1
Example compounds as described herein were dispensed with an acoustic liquid handler, Echo 550 (Labcyte) to a maximum volume of 50 nl per well in a 384 well plate. DHODH enzyme assays were performed with 4 nM recombinant human DHODH (purified essentially as described by Walse et. al., Biochemistry, 47, 8929-8936 (2008)). The reaction mixture consisted of 2 mM DL-dihydroorotic acid (#D7003, Sigma-Aldrich), 100 μM 3,4-dimethoxy-5-methyl-p-benzoquinone (#D9150, Sigma-Aldrich), and 200 μM 2,6-dichlorophenolindophenol sodium salt (DCIP) (#D1878, Sigma-Aldrich) in enzyme buffer (50 mM Tris-HCl pH 8.0, 0.1% Triton X-100, 150 mM KCl) in a final volume of 50 μl per well. A stock solution of 80 mM DCIP was prepared in DMSO just before use. Loss in absorbance by chromogen DCIP was measured at 595 nm at RT every 2 min for an hour with a plate reader (Envision, Perkin Elmer).

T1 sequence (Q02127 29-395): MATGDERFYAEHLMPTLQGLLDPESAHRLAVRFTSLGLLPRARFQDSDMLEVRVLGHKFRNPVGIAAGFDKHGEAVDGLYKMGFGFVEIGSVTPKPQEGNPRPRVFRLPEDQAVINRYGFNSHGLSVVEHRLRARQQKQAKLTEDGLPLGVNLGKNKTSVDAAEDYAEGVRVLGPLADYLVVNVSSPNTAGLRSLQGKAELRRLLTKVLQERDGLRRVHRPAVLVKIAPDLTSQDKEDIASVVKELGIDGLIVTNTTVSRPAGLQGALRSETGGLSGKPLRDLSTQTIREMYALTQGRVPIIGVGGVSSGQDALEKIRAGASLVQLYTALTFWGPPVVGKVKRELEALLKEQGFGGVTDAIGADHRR

| Structure (SMILES) | IC50 [3] [µM] | viability at 2 µM ([1]; absence of excess uridine) [%] | further results |
| --- | --- | --- | --- |
| Cc1cc(C(=O)NC2CCCc3c2cnn3-c2ccc(C)c(C)c2)no1 (stereo not drawn) [Example 6, N-[1-(3,4-dimethylphenyl)-4,5,6,7-tetrahydro-1H-indazol-4-yl]-5-methyl-3-isoxazolecarboxamide] |  | 105 | IC50 [2]: 5.83 µM |
| Cc1cnc(C(=O)N[C@@H]2CCCc3c2cnn3-c2ccccc2F)cn1 (single isomer, unassigned) [Example 15, N-[(4R*)-1-(2-fluorophenyl)-4,5,6,7-tetrahydro-1H-indazol-4-yl]-5-methylpyrazine-2-carboxamide] | 0.735 |  |  |
| Cc1ccccc1-n1ncc2c1CCC[C@H]2NC(=O)c1oc2ccccc2c1C [Example 18, 3-methyl-N-[(4R)-1-(2-methylphenyl)-4,5,6,7-tetrahydro-1H-indazol-4-yl]-1-benzofuran-2-carboxamide] | 0.459 |  |  |
| CSc1nc(C(=O)NC2CCCc3c2cnn3-c2ccc(F)cc2F)cs1 (stereo not drawn) [Example 11, N-[1-(2,4-difluorophenyl)-4,5,6,7-tetrahydro-1H-indazol-4-yl]-2-(methylthio)-1,3-thiazole-4-carboxamide] |  | 93 | IC50 [2]: 8.2 µM |
| O=C(N[C@H]1CCCc2c1cnn2-c1ccccc1F)c1ccccn1 [Example 2, (S)—N-(1-(2-Fluorophenyl)-4,5,6,7-tetrahydro-1H-indazol-4-yl)picolinamide] |  | 100 |  |
| O=C(N[C@@H]1CCCc2c1cnn2-c1ccccc1F)c1onc2c1CCCC2 [Example 14, N-[(4R)-1-(2-fluorophenyl)-4,5,6,7-tetrahydro-1H-indazol-4-yl]-4,5,6,7-tetrahydro-2,1-benzoxazole-3-carboxamide] | 0.009 |  |  |
| O=C(NC1CCCc2c1cnn2-c1ccccc1F)c1onc2c1CCCC2 (stereo not drawn) [Example 8, N-(1-(2-fluorophenyl)-4,5,6,7-tetrahydro-1H-indazol-4-yl)-4,5,6,7-tetrahydrobenzo[c]isoxazole-3-carboxamide] |  | 48 | ARN8 melanoma cell growth and/or viability ([1]; absence of excess uridine, FIG. 2): reduces ARN8 melanoma cell growth and/or viability; effect on ARN8 melanoma cell growth and/or viability with excess uridine ([1]; excess uridine (100 micromolar), FIG. 2): largely prevented by the addition of excess uridine; IC50 [2]: 0.032 µM |
| COC(=O)c1ccc(C(=O)NC2CCCc3c2cnn3-c2ccccc2F)nc1 (stereo not drawn) [Example 7, Methyl 6-({[1-(2-fluorophenyl)-4,5,6,7-tetrahydro-1H-indazol-4-yl]amino}carbonyl)nicotinate] |  | 28 | IC50 [2]: > 10 µM |
| O=C(N[C@@H]1CCCc2c1cnn2-c1ccccc1F)c1ccccn1 [Example 3, (R)—N-(1-(2-fluorophenyl)-4,5,6,7-tetrahydro-1H-indazol-4-yl)picolinamide] |  | 30 |  |
| O=C(NC1CCCc2c1cnn2-c1ccc(F)cc1F)c1onc2c1CCCC2 (stereo not drawn) [Example 5, N-(1-(2,4-difluorophenyl)-4,5,6,7-tetrahydro-1H-indazol-4-yl)-4,5,6,7-tetrahydrobenzo[c]isoxazole-3-carboxamide] |  | 22 | IC50 [2]: 0.29 µM |
| Cc1ccccc1-n1ncc2c1CCC[C@H]2NC(=O)c1cc2ccccc2o1 [Example 17, N-[(4R)-1-(2-methylphenyl)-4,5,6,7-tetrahydro-1H-indazol-4-yl]-1-benzofuran-2-carboxamide] | 0.124 |  |  |
| Cc1ccccc1-n1ncc2c1CCC[C@H]2NC(=O)c1sccc1C [Example 19, 3-methyl-N-[(4R)-1-(2-methylphenyl)-4,5,6,7-tetrahydro-1H-indazol-4-yl]thiophene-2-carboxamide] | 0.136 |  |  |
| CCc1cc(C(=O)NC2CCCc3c2cnn3-c2ccc(F)cc2F)no1 (stereo not drawn) [Example 10, N-[1-(2,4-difluorophenyl)-4,5,6,7-tetrahydro-1H-indazol-4-yl]-5-ethyl-3-isoxazolecarboxamide] |  | 92 | IC50 [2]: 2.44 µM |
| O=C(NC1CCCc2c1cnn2-c1ccccc1F)c1cscn1 (stereo not drawn) [Example 4, N-[1-(2-fluorophenyl)-4,5,6,7-tetrahydro-1H-indazol-4-yl]-1,3-thiazole-4-carboxamide] |  | 52 | IC50 [2]: 1.11 µM |
| COC(=O)c1ccc(C(=O)NC2CCCc3c2cnn3-c2cc(F)cc(F)c2)nc1 (stereo not drawn) [Example 9, Methyl 6-({[1-(3,5-difluorophenyl)-4,5,6,7-tetrahydro-1H-indazol-4-yl]amino}carbonyl)nicotinate] |  | 8 | IC50 [2]: > 10 µM |

Continued, in another order:

| IC50 [3] [µM] | Structure (SMILES) | viability at 2 µM ([1]; absence of excess uridine) [%] | further results |
| --- | --- | --- | --- |
| 0.881 | Cc1ccccc1-n1ncc2c1CCC[C@H]2NC(=O)c1cccnc1O [Example 21, 2-hydroxy-N-[(4R)-1-(2-methylphenyl)-4,5,6,7-tetrahydro-1H-indazol-4-yl]pyridine-3-carboxamide] |  |  |
| 0.22 | O=C(N[C@@H]1CCCc2c1cnn2-c1cccc(C(=O)N2CCOCC2)c1)c1noc2c1CCCC2 [Example 53, N-[(4R)-1-[3-(morpholine-4-carbonyl)phenyl]-4,5,6,7-tetrahydro-4H-indazol-4-yl]-4,5,6,7-tetrahydro-1,2-benzoxazole-3-carboxamide] |  |  |
| 0.006 | O=C(N[C@@H]1CCCc2c1cnn2-c1ccccc1F)c1ncn2c1CCCC2 [Example 46, (R)—N-(1-(2-fluorophenyl)-4,5,6,7-tetrahydro-1H-indazol-4-yl)-5,6,7,8-tetrahydroimidazo[1,5-a]pyridine-1-carboxamide] |  |  |
| 0.066 | Cc1ccc(C(=O)N[C@@H]2CCCc3c2cnn3-c2ccccc2C)nc1 [Example 24, 5-methyl-N-[(4R)-1-(2-methylphenyl)-4,5,6,7-tetrahydro-1H-indazol-4-yl]pyridine-2-carboxamide] |  |  |
| 2.08 | COc1cc(C(=O)N[C@@H]2CCCc3c2cnn3-c2ccccc2F)nc2ccccc12 [Example 38, (R)—N-(1-(2-fluorophenyl)-4,5,6,7-tetrahydro-1H-indazol-4-yl)-4-methoxyquinoline-2-carboxamide] |  |  |
| 0.441 | Cc1ccnc(C(=O)NC2CCCc3c2cnn3-c2ccccc2)c1 (stereo not drawn) [Example 43, 4-methyl-N-(1-phenyl-4,5,6,7-tetrahydro-1H-indazol-4-yl)pyridine-2-carboxamide] |  |  |
| 0.011 | CC(C)OC(=O)c1cccc(-n2ncc3c2CCC[C@H]3NC(=O)c2noc3c2CCCC3)c1 [Example 52, Propan-2-yl-3-[(4R)-4-(4,5,6,7-tetrahydro-1,2-benzoxazole-3-amido)-4,5,6,7-tetrahydro-1H-indazol-1-yl]benzoate] |  |  |
| > 3 | Cc1cccc(C(=O)N[C@@H]2CCCc3c2cnn3-c2ccccc2C)n1 [Example 45, 6-methyl-N-[(4R)-1-(2-methylphenyl)-4,5,6,7-tetrahydro-1H-indazol-4-yl]pyridine-2-carboxamide] |  |  |
| 2.67 | O=C(N[C@@H]1CCCc2c1cnn2-c1ccccc1F)c1cc2ccccc2[nH]1 [Example 35, N-[(4R)-1-(2-fluorophenyl)-4,5,6,7-tetrahydro-1H-indazol-4-yl]-1H-indole-2-carboxamide] |  |  |
| 2 | O=C(N[C@@H]1CCCc2c1cnn2-c1ccccc1F)c1ccc(C(F)(F)F)cn1 [Example 40, N-[(4R)-1-(2-fluorophenyl)-4,5,6,7-tetrahydro-1H-indazol-4-yl]-5-(trifluoromethyl)pyridine-2-carboxamide] |  |  |
| 0.088 | O=C(N[C@@H]1CCCc2c1cnn2-c1ccccc1F)c1nc2ccccc2o1 [Example 33, N-[(4R)-1-(2-fluorophenyl)-4,5,6,7-tetrahydro-1H-indazol-4-yl]-1,3-benzoxazole-2-carboxamide] |  |  |
| 0.096 | Cc1ccccc1-n1ncc2c1CCC[C@H]2NC(=O)c1ncccc1C [Example 26, 3-methyl-N-[(4R)-1-(2-methylphenyl)-4,5,6,7-tetrahydro-1H-indazol-4-yl]pyridine-2-carboxamide] |  |  |
| 0.018 | O=C(N[C@@H]1CCCc2c1cnn2-c1ccccc1F)c1noc2ccccc12 [Example 28, N-[(4R)-1-(2-fluorophenyl)-4,5,6,7-tetrahydro-1H-indazol-4-yl]-1,2-benzoxazole-3-carboxamide] |  |  |
| 0.355 | Cc1ccccc1-n1ncc2c1CCC[C@H]2NC(=O)c1ccccn1 [Example 20, N-[(4R)-1-(2-methylphenyl)-4,5,6,7-tetrahydro-1H-indazol-4-yl]pyridine-2-carboxamide] |  |  |
